Columns and labels:
Format in all cases: cell-based
cell line TT = assay: Treatment effectiveness (GI50) on cell line TT; settings: data point 230, FIG. 2; read-out: sensitivity class from GI50 treatment effectiveness value
From the text: (§1) There are many ways to derive and measure treatment effectiveness data 136 for a particular treatment. For example, effectiveness data can be derived by administering the evaluated treatment to each and every diseased cell line, and measure the effect of the evaluated treatment on each diseased cell line. The measurement can be based on an amount of drug needed to obtain a threshold inhibition effect of the disease in the cell line (e.g., the amount of drug needed to reduce the activities of the disease by half).
(§2) FIG. 2 illustrates a graph 200 showing a graphical representation of an example set of treatment effectiveness data 136 that represents how effective NANT3456 is on a set of cell lines. NANT3456 is described in more detail in WO/2014/071378, published May 8, 2014, which is incorporated by reference herein. In some embodiments, the data points on FIG. 2 represent distinct cell lines from different tissues, distinct cell lines from the same tissue, or any combination thereof. Further, the cell lines may be derived from a single host, multiple distinct hosts, or any combination. In this example, NANT3456 is known to be capable of treating diseases associated with the set of cell lines (e.g., cell lines MV411, TT, AN3CA, K562, PC3, HCT116, ASPC1, MDAMB231, TF1, NCIH23, MIAPACA2, HS766T, CAPAN2, A549, HT29, U937, BXPC3, CAPAN1, and SU8686). […]

cell line PC3 = assay: Treatment effectiveness (GI50) on cell line PC3; settings: data point 235, FIG. 2; read-out: sensitivity class from GI50 treatment effectiveness value
From the text: as §1, §2

[1] = tested on: set of cell lines (MV411, TT, AN3CA, K562, PC3, HCT116, ASPC1, MDAMB231, TF1, NCIH23, MIAPACA2, HS766T, CAPAN2, A549, HT29, U937, BXPC3, CAPAN1, SU8686); assay: Treatment effectiveness (GI50) of NANT3456 on a set of cell lines; settings: median over all cell lines of FIG. 2; dotted line 220
From the text: as §1, §2

cell line HT29 = assay: Treatment effectiveness (GI50) on cell line HT29; settings: Homo sapiens, HT-29; data point 245, FIG. 2; read-out: sensitivity class from GI50 treatment effectiveness value
From the text: as §1, §2

NCIH23 = assay: Treatment effectiveness (GI50) on cell line NCIH23; settings: Homo sapiens, NCI-H23; data point 240, FIG. 2; read-out: sensitivity class from GI50 treatment effectiveness value
From the text: as §1, §2

cell line CAPAN1 = assay: Treatment effectiveness (GI50) on cell line CAPAN1; settings: Homo sapiens, CAPAN-1; data point 250, FIG. 2; read-out: sensitivity class from GI50 treatment effectiveness value
From the text: as §1, §2

cell line MV411 = assay: Treatment effectiveness (GI50) on cell line MV411; settings: Homo sapiens, MV4-11; data point 225, FIG. 2; read-out: sensitivity class from GI50 treatment effectiveness value
From the text: as §1, §2

- GI50 (cell line PC3): < 50.1 nM
- threshold effectiveness value (median value of all treatment effectiveness values, GI50) [1]: 1.7 log10 units of nanomolar drug
- GI50 sensitivity class (cell line HT29): > 50.1 nM
- GI50 (cell line MV411): < 50.1 nM
SMILES: C/C=C/c1cc(Nc2cc(N3CCN(C)CC3)nc(Oc3cc(F)c4[nH]c(C)cc4c3F)n2)n[nH]1 [NANT3456]
- GI50 (cell line TT): < 50.1 nM
- GI50 (NCIH23): > 50.1 nM
- GI50 (cell line CAPAN1): > 50.1 nM

— US11011273B2, “Pathway analysis for identification of diagnostic tests” (Nantomics, LLC, priority 2013, dated 2021)
